Test results: US6875761B2 (Eisai Co., Ltd., priority 1997, dated 2005)
Counter-ions that a name gives are not always drawn.

What was measured:
serotonin 2 receptor = biological target: T1, serotonin 2 receptor (Rattus norvegicus, UniProt P14842); assay: Binding test on [3H] ketanserin, cerebral cortex receptor fraction; set-up: species or system SD rats; settings: 0.3 nM [3H] ketanserin, 37° C. 15 min, read-out: 5HT2
T1 construct: To the receptor fraction of the cerebral cortex were added a test compound and 0.3 nM of [^3H] ketanserin; from tissue; host or cells: rat cerebral cortex membrane fraction

serotonin 1A receptor = biological target: T2, serotonin 1A receptor (Rattus norvegicus, UniProt P19327); assay: Binding test on [3H] 8-hydroxy-dipropylaminotetralin, hippocampus receptor fraction; set-up: species or system SD rats; settings: rat hippocampus receptor fraction, 0.5 nM [3H] 8-OH-DPAT, room temperature 30 min; read-out: 5HT1
T2 construct: To the receptor fraction of the hippocampus were added a test compound and 0.5 nM of [^3H]; 8-hydroxy-dipropylaminotetralin; from tissue; host or cells: rat hippocampus membrane fraction
T2 sequence (P19327 1-422): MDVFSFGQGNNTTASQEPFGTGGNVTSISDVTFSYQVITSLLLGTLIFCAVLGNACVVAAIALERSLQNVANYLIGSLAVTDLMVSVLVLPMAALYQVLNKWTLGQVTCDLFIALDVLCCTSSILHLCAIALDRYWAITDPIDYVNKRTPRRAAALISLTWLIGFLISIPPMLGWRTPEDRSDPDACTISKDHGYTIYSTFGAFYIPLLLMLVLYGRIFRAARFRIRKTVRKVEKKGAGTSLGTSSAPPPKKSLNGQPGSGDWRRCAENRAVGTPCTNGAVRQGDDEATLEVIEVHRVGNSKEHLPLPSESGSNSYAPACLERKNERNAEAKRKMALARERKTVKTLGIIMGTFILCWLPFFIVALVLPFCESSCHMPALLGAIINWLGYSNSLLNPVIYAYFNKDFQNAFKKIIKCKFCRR

T1 sequence (P14842 whole entry): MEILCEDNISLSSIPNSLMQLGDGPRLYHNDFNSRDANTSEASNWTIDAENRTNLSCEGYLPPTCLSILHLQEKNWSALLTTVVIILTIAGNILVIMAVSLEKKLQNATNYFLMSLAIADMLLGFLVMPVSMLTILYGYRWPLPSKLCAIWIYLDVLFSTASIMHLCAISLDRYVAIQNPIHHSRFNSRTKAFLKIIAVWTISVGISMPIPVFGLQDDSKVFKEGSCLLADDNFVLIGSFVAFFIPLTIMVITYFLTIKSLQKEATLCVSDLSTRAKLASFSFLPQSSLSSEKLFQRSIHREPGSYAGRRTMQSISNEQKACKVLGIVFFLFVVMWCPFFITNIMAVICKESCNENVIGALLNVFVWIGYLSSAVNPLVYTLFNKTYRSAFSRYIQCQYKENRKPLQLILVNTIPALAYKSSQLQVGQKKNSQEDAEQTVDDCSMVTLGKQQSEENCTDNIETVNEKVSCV

Ki (serotonin 2 receptor) | Ki (serotonin 1A receptor) | SMILES
20.9 nM | 51.9 nM | CCN1CCN(c2nc(/C=C/c3cc(N4CCOCC4)ncn3)cc3ccccc23)CC1 [Example 215, 3{(E)-2-[4-(4-morpholinyl)pyrimidin-6-yl]ethenyl}-1-(4-ethylpiperazin-1-yl)isoquinoline oxalate]
15.9 nM | 10 nM | CCN1CCN(c2nc(C#CCCc3ccccc3)cc3ccccc23)CC1 [Example 182, 1-(1-Ethylpiperazin-4-Yl)-3-[4-Phenyl-1-Butynyl)Isoquinoline Dihydrochloride]
1.9 nM | 0.56 nM | CCN1CCN(c2nc(-c3ccc(CNS(=O)(=O)CC)cc3)cc3ccccc23)CC1 [Example 78, 3-(4-Ethylsulfonylaminomethylphenyl)-1-(4-Ethylpiperazin-1-Yl)Isoquinoline Hydrochloride]
0.98 nM | 33.1 nM | CCN1CCN(c2nc(/C=C/c3ccc(N4CCOCC4)cc3)cc3ccccc23)CC1 [Example 205, 3-{(E)-2-[4-(4-Morpholinyl)Phenyl]Ethenyl}-1-(4-Ethylpiperazin-1-Yl)Isoquinoline Oxalate]
12.9 nM | 4.5 nM | CCN1CCN(c2nc(-c3ccc(CS(C)(=O)=O)cc3)cc3ccccc23)CC1 [Example 90, 3-(4-Methylsulfonylmethylphenyl)-1-(4-ethylpiperazin-1-yl)isoquinoline Hydrochloride]
14.9 nM | 6.2 nM | CCN1CCN(c2nc(-c3ccc(S(C)(=O)=O)cc3)cc3ccccc23)CC1 [Example 342, 1-(4-ethylpiperazin-1-yl)-3-(4-methylsulfonylphenyl)isoquinoline dihydrochloride]
3.85 nM | 35 nM | CCN1CCN(c2nc(/C=C/c3ccc(OC)cc3)cc3ccccc23)CC1 [Example 190, 1-(1-Ethylpiperazin-4-Yl)-3-[Trans-2-(4-Methoxyphenyl)Ethenyl]Isoquinoline Dihydrochloride]
73.6 nM | 31.6 nM | CCN1CCN(c2nc(-c3cccc(OCCO)c3)cc3ccccc23)CC1 [Example 329, 1-(4-Ethylpiperazin-1-yl)-3-[3-(2-hydroxyethoxy)phenyl]isoquinoline dihydrochloride]
74.9 nM | 71 nM | CCN1CCN(c2nc(-c3ccc(C(F)(F)F)cc3)cc3ccccc23)CC1 [Example 4, 1-(4-ethylpiperazin-1-yl)-3-(4-trifluoromethylphenyl)isoquinoline Dihydrochloride]
1.5 nM | 2 nM | CCC(C)NS(=O)(=O)c1ccc(-c2cc3ccccc3c(N3CCN(CC)CC3)n2)cc1 (centres unmarked) [Example 360, 1-(4-ethylpiperazin-1-yl)-3-{4-[N-(1-methylpropyl)sulfamoyl]phenyl}isoquinoline dihydrochloride]
0.72 nM | 21.8 nM | CCN1CCN(c2nc(-c3ccc(CCC(C)O)cc3)cc3ccsc23)CC1 (centres unmarked) [Example 440, 7-(4-ethylpiperazin-1-yl)-5-[4-(3-hydroxybutyl)phenyl]thieno[2,3-c]pyridine dihydrochloride]
4.8 nM | 37.3 nM | CCN1CCN(c2nc(-c3ccc(C4COCCO4)cc3)cc3ccccc23)CC1 (centres unmarked) [Example 395, 1-(4-Ethylpiperazin-1-yl)-3-[4-(1,4-Dioxan-2-yl)Phenyl]Isoquinoline Dihydrochloride]
24.7 nM | 44.5 nM | CCN1CCN(c2nc(Sc3ccccc3)cc3ccccc23)CC1 [Example 374, 1-(4-ethylpiperazin-1-yl)-3-(phenylthio)isoquinoline oxalate]
60.5 nM | 64.9 nM | CCN1CCN(c2nc(-c3ccc(OCCCO)cc3)cc3ccsc23)CC1 [Example 434, 7-(4-ethylpiperazin-1-yl)-5-[4-(3-hydroxypropoxy)phenyl]thieno[2,3-c]pyridine dihydrochloride]
2.11 nM | 1.98 nM | CCN1CCN(c2nc(/C=C/c3ccc(OCCO)cc3)cc3ccsc23)CC1 [Example 431, 7-(4-ethylpiperazin-1-yl)-5-[4-(2-hydroxyethoxy)styryl]thieno[2,3-c]pyridine hydrochloride]
19.5 nM | 9.22 nM | CCN1CCN(c2nc(-c3ccc(C(F)CCO)cc3)cc3ccsc23)CC1 (centres unmarked) [Example 256, 7-(1-ethylpiperazin-4-yl)-5-[4-(3-hydroxy-1-fluoropropyl)phenyl]thieno[2,3-c]pyridine Dihydrochloride]
6.4 nM | 15.7 nM | CCN1CCN(c2nc(-c3ccc(CCO)cc3)cc3ccccc23)CC1 [Example 351, 1-(4-ethylpiperazin-1-yl)-3-[4-(2-hydroxyethyl)phenyl]isoquinoline dihydrochloride]
26.8 nM | 11.1 nM | CCN1CCN(c2nc(-c3ccc(CO)cc3)cc3ccccc23)CC1 [Example 17, 1-(4-ethylpiperazin-1-yl)-3-(4-hydroxymethylphenyl)isoquinoline hydrochloride]
1.96 nM | 22.2 nM | CCN1CCN(c2nc(-c3ccc(CCC(C)O)cc3)cc3sccc23)CC1 (centres unmarked) [Example 285, 4-(1-ethylpiperazin-4-yl)-6-[4-(3-hydroxybutyl)phenyl]thieno[3,2-c]pyridine hydrochloride]
11.9 nM | 9.38 nM | CCC(O)c1cc(-c2cc3ccccc3c(N3CCN(CC)CC3)n2)cs1 (centres unmarked) [Example 164, 1-(1-ethylpiperazin-4-yl)-3-[2-(1-hydroxypropyl)thiophen-4-yl]isoquinoline hydrochloride]
15.5 nM | 16.6 nM | CCN1CCN(c2nc(/C=C/c3cncc(N4CCOCC4)n3)cc3ccccc23)CC1 [Example 216, 3-{(E)-2-[2-(4-morpholinyl)pyrazin-6-yl]ethenyl}-1-(4-ethylpiperazin-1-yl)isoquinoline oxalate]
2.4 nM | 8.9 nM | CCN1CCN(c2nc(-c3ccc(CC(C)CO)cc3)cc3ccccc23)CC1 (centres unmarked) [Example 386, 1-(4-Ethylpiperazin-1-yl)-3-[4-(3-Hydroxy-2-Methylpropyl)Phenyl]Isoquinoline Oxalate]
0.78 nM | 28.4 nM | CCN1CCN(c2nc(-c3ccc(OC[C@@H](C)O)cc3)cc3ccccc23)CC1 [Example 403, 1-(4-ethylpiperazin-1-yl)-3-[4-(2-hydroxypropoxy)phenyl]isoquinoline Dihydrochloride]
0.06 nM | 53.7 nM | CCN1CCN(c2nc(-c3ccc(OC)c(CCCO)c3)cc3ccsc23)CC1 [Example 261, 5-[3-(3-hydroxypropyl)-4-methoxyphenyl]-7-(4-ethylpiperazin-1-yl)thieno[2,3-c]pyridine Oxalate]
25.4 nM | 3 nM | CCC(O)c1ncc(-c2cc3ccccc3c(N3CCN(CC)CC3)n2)s1 (centres unmarked) [Example 170, 1-(1-ethylpiperazin-4-yl)-3-[(1-hydroxypropyl)thiazol-5-yl]isoquinoline dihydrochloride]
21.6 nM | 14.8 nM | CCN1CCN(c2nc(-c3ccc(CCO)c(F)c3)cc3ccccc23)CC1 [Example 385, 1-(4-Ethylpiperazin-1-yl)-3-[3-Fluoro-4-(2-Hydroxyethyl)Phenyl]Isoquinoline Dihydrochloride]
13.9 nM | 87 nM | CCN1CCN(c2nc(-c3ccc(OCC(C)O)cc3)cc3cccnc23)CC1 (stereo in doubt) [Example 246, 8-(1-ethylpiperazin-4-yl)-6-{4-[(S)-2-hydroxypropoxy}phenyl]-1,7-naphthyridine Dihydrochloride]
0.01 nM | 10.9 nM | CCN1CCN(c2nc(-c3ccc(C4CCOCC4)nc3)cc3ccccc23)CC1 [Example 156, 3-[2-(tetrahydropyran-4-yl)pyridin-5-yl]-1-(4-ethylpiperazin-1-yl)isoquinoline oxalate]

SMILES | Ki (serotonin 2 receptor) | Ki (serotonin 1A receptor)
CCN1CCN(c2nc(-c3ccc(CCCCO)nc3)cc3ccccc23)CC1 [Example 137, 1-(1-Ethylpiperazin-4-yl)-3-[2-(4-Hydroxybutyl)Pyridin-5-yl]Isoquinoline] | 32.5 nM | 7.2 nM
CCN1CCN(c2nc(-c3ccc(C4(O)CCOCC4)cc3)cc3ccccc23)CC1 [Example 410, 1-(4-ethylpiperazin-1-yl)-3-[4-(4-hydroxytetrahydropyran-4-yl)phenyl]isoquinoline] | 2.1 nM | 21.1 nM
CCN1CCN(c2nc(NC(=O)c3ccccc3)cc3ccccc23)CC1 [Example 421, 3-benzamide-1-(4-ethylpiperazin-1-yl)isoquinoline] | 129 nM | 9.47 nM
CCN1CCN(c2nc(-c3cccc(OC)c3)cc3ccccc23)CC1 [Example 9, 1-(4-ethylpiperazin-1-yl)-3-(3-methoxyphenyl)isoquinone Dihydrochloride] | 24.5 nM | 57 nM
CCN1CCN(c2nc(-c3ccc(C(CC(C)O)OC)cc3)cc3ccccc23)CC1 (centres unmarked) [Example 26, 3-[4-(3-hydroxy-1-methoxybutyl)phenyl]-1-(4-ethylpiperazin-1-yl)isoquinoline] | 55 nM | 8.5 nM
CCN1CCN(c2nc(-c3ccc(C(C)(C)O)cc3)cc3ccccc23)CC1 [Example 345, 1-(4-ethylpiperazin-1-yl)-[4-(1-hydroxy-1-methylethyl)phenyl]isoquinoline] | 1.4 nM | 11.3 nM
